Experimental data as given in PubChem BioAssay (NCI).
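The compound was tested at five concentrations on cells cultured in 96-well plates, with a 48-hour exposure period. TGI is the concentration that stops growth completely.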

Key:
Assay in all cases: NCI tumour cell line growth inhibition, 48 h
RXF 393 renal = system: RXF 393 renal
SF-268 CNS = system: SF-268 CNS
LXFL 529 NSCLC = system: LXFL 529 NSCLC
A549 NSCLC = system: A549 NSCLC
OVCAR-8 ovarian = system: OVCAR-8 ovarian
OVCAR-4 ovarian = system: OVCAR-4 ovarian
HL-60(TB) leukemia = system: HL-60(TB) leukemia
SK-MEL-2 melanoma = system: SK-MEL-2 melanoma
MALME-3M melanoma = system: MALME-3M melanoma
OVCAR-3 ovarian = system: OVCAR-3 ovarian
SK-MEL-28 melanoma = system: SK-MEL-28 melanoma
SK-MEL-5 melanoma = system: SK-MEL-5 melanoma
UACC-62 melanoma = system: UACC-62 melanoma
NCI-H460 lung = system: NCI-H460 lung
SF-539 CNS = system: SF-539 CNS
DMS 273 small cell lung = system: DMS 273 small cell lung
CCRF-CEM leukemia = system: CCRF-CEM leukemia
HT29 colon = system: HT29 colon
UO-31 renal = system: UO-31 renal
HOP-62 NSCLC = system: HOP-62 NSCLC
HCC-2998 colon = system: HCC-2998 colon
M19-MEL melanoma = system: M19-MEL melanoma
DMS 114 small cell lung = system: DMS 114 small cell lung
HCT-15 colon = system: HCT-15 colon
K-562 leukemia = system: K-562 leukemia
EKVX NSCLC = system: EKVX NSCLC
HCT-116 colon = system: HCT-116 colon
HOP-18 NSCLC = system: HOP-18 NSCLC
COLO 205 colon = system: COLO 205 colon
CAKI-1 renal = system: CAKI-1 renal
KM12 colon = system: KM12 colon
786-0 renal = system: 786-0 renal
RXF-631 renal = system: RXF-631 renal
NCI-H226 lung = system: NCI-H226 lung
SR leukemia = system: SR leukemia
NCI-H522 lung = system: NCI-H522 lung
SF-295 CNS = system: SF-295 CNS
HOP-92 NSCLC = system: HOP-92 NSCLC
SW-620 colon = system: SW-620 colon
SNB-19 CNS = system: SNB-19 CNS
UACC-257 melanoma = system: UACC-257 melanoma
SN12C renal = system: SN12C renal
SNB-75 CNS = system: SNB-75 CNS
RPMI-8226 leukemia = system: RPMI-8226 leukemia
TK-10 renal = system: TK-10 renal
ACHN renal = system: ACHN renal
NCI-H23 lung = system: NCI-H23 lung
U251 CNS = system: U251 CNS
MOLT-4 leukemia = system: MOLT-4 leukemia
M14 melanoma = system: M14 melanoma
KM20L2 colon = system: KM20L2 colon
LOX IMVI melanoma = system: LOX IMVI melanoma
SNB-78 CNS = system: SNB-78 CNS
A498 renal = system: A498 renal
DLD-1 colon = system: DLD-1 colon
XF 498 CNS = system: XF 498 CNS
SK-OV-3 ovarian = system: SK-OV-3 ovarian
IGROV1 ovarian = system: IGROV1 ovarian
OVCAR-5 ovarian = system: OVCAR-5 ovarian

Measured: TGI

CC(=O)NC(CCCNC(=O)NCCCl)C(=O)NCc1ccccc1 (stereo unspecified)
not listed: LOX IMVI melanoma | SNB-78 CNS | A498 renal | DLD-1 colon | XF 498 CNS | SK-OV-3 ovarian | IGROV1 ovarian | OVCAR-5 ovarian
> 100 µM: all other assays above

CCC1(N=[N+]=[N-])C(=O)c2ccccc2N(c2ccccc2)C1=O (stereo unspecified)
not listed: RXF 393 renal | RXF-631 renal | NCI-H226 lung | RPMI-8226 leukemia
> 100 µM: all other assays above
